Values joined by “and” are separate entries in the source; they are usually repeats but may differ in a detail not shown here. Identical values can stand only once.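 Dose response: 5 concentrations. Exposure: 48 h. Format: 96-well plates. Endpoint: linear interpolation; highest concentration if not reached. GI50: concentration for 50% inhibition of growth. TGI: total growth inhibition.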
Assays:
Test in all cases: DTP human tumour cell line panel, 48 h
[1] = tested on: OVCAR-3 ovarian
[2] = tested on: LOX IMVI melanoma
[3] = tested on: CCRF-CEM leukemia
[4] = tested on: MDA-MB-231 breast
[5] = tested on: SR leukemia
[6] = tested on: MCF7 breast
[7] = tested on: M14 melanoma
[8] = tested on: SK-OV-3 ovarian
[9] = tested on: HS 578T breast
[10] = tested on: UACC-62 melanoma

Structure (SMILES) | TGI [1] | TGI [2] | TGI [3] | TGI [4] | TGI [5] [µM] | TGI [6] [µM] | TGI [7] [µM] | TGI [8] [µM] | TGI [9] [µM] | TGI [10] [µM] | GI50 [1] | GI50 [2] | GI50 [3] | GI50 [4] | GI50 [5] | GI50 [6] | GI50 [7] | GI50 [8] | GI50 [9] | GI50 [10] [µM]
CSCCCNC(=O)[C@H](CSC)NC(=O)c1csc(CCNC(=O)[C@@H](NSc2ccccc2[N+](=O)[O-])C(C)O)n1 (stereo partly specified) | > 100 µM | > 100 µM | > 100 µM | > 100 µM | > 100 | > 100 | > 100 | > 100 | > 100 | > 100 |  |  |  |  |  |  |  |  |  | 
CC1=C(N2CC2)C(=O)c2ccccc2C1=O | 2.89 µM | 4.98 µM | 15.5 µM | 32.8 µM | 0.279 | 1.82 | 5.03 | > 100 | 4.89 | 2.05 |  |  |  |  |  |  |  |  |  | 
Cc1c(Cl)c(C)c(Cc2c(C)c(Cl)c(C)c(Cl)c2O)c(O)c1Cl | 11.2 µM | 10.5 µM | 12.6 µM | 7.2 µM | 12.4 | 8.37 | 14.4 | 9.46 | 9.55 | 6.84 | 3.28 µM | 3.18 µM | 2.57 µM | 2.38 µM | 3.4 µM | 2.14 µM | 3.53 µM | 2.68 µM | 2.71 µM | 1.81
NNC(=O)C(O)C(O)C(=O)NN (stereo unspecified) | > 100 µM | > 100 µM | > 100 µM | > 100 µM | > 100 | > 100 | > 100 | > 100 | > 100 | > 100 |  |  |  |  |  |  |  |  |  | 
O=C(/C=C/c1ccc([N+](=O)[O-])cc1)c1cccc(Nc2nc(Nc3ccccc3)nc(Nc3ccccc3)n2)c1 | 63.4 µM | 44.6 µM | 25.6 µM | 41.9 µM | 6.92 | 4.21 | 90.6 | > 100 | 5.97 | > 100 | 11.3 µM | 11.1 µM | 3.85 µM | 10.7 µM | 0.484 µM | 1.19 µM | 21.6 µM | 73.8 µM | 1.35 µM | 21.7
CCCCCCCCCCCCCCCCOCC(O)CO (stereo unspecified) | 46.7 µM | 33.4 µM | 27.3 µM | 35.6 µM | 28.5 | 38.1 | 58 | 31.3 | 39.7 | 35.2 |  |  |  |  |  |  |  |  |  | 
O=C(NOCCO)c1cc(CN2OCCCC2=O)c(F)c(F)c1Nc1ccc(I)cc1F | 98.7 µM and > 10 µM | 12.2 µM and > 10 µM | > 100 µM | 62.2 µM and > 10 µM | > 100 | > 100 | 0.0237 | > 85.8 | > 100 |  | 28.9 µM and > 10 µM | 0.112 µM and 0.164 µM | 39.5 µM and > 10 µM | 0.243 µM and 0.116 µM | 19.9 µM and > 10 µM | 28.8 µM and > 10 µM | < 0.01 µM and 0.00226 µM | 22.6 µM and > 2.5 µM | 20.6 µM and > 10 µM | < 0.01
CC(/C=N/N=C(N)N)=N\N=C(N)N | 130 µM | 202 µM | > 78.5 µM and 1300 µM | 965 µM | 333 | 1120 | 425 | 546 | 169 | 236 | 11.1 µM | 29.9 µM | 18.8 µM | 7.67 µM | 1.95 µM | 19.4 µM |  |  |  | > 55.3
CNC(c1ccncc1)C(NC)c1ccncc1 (stereo unspecified) | > 100 µM | > 100 µM | > 100 µM | > 100 µM | > 100 | > 100 | > 100 | > 100 | > 100 | > 100 |  |  |  |  |  |  |  |  |  | 

Source: PubChem BioAssay (NCI)
